Assay results published in ChEMBL document CHEMBL4483862, “Open-source discovery of chemical leads for next-generation chemoprotective antimalarials” (2018).

Tested on: Plasmodium berghei
Experiment: Luciferase/luciferin-expressing antifolate-resistant parasites were used to infect a culture of HepG2 cells that were pre-incubated with compounds. Infected hepatocytes emit light due to the luciferase reaction. Assay results are presented as the percent inhibition of light emission compared to control. […]
Assay type: functional
Conditions: sporozoite; for IC90: read-out: LUCIFERASE INFECTION ASSAY - IC90
[1] = read-out: LUCIFERASE INFECTION ASSAY - IC50

| Compound | IC50 [1] | IC90 | other results |
| --- | --- | --- | --- |
| CN(C)c1ccc(S(=O)(=O)N2CCCCC2)cc1NC(=S)NCc1ccc2c(c1)OCO2 | > 10 µM | > 10 µM | – |
| COc1cc(CNC(=O)c2scnc2C)ccc1OC1CCCC1 | 2.89 µM | > 10 µM | – |
| O=C(Nc1nccs1)c1cc(-c2ccccc2)c(C(F)(F)F)s1 | – | 8.66 µM | IC50 (HEPG2TOX_HILL_SLOPE 4.77, HEPG2TOX_R_SQUARED 0.804, PBLUC_HILL_SLOPE 25.8, PBLUC_R_SQUARED 0.401, read-out: LUCIFERASE INFECTION ASSAY - IC50): 7.96 µM |
| CN(C)CCNc1nc(-c2ccco2)c2c(c1C#N)CCCC2 | – | > 10.6 µM | IC50 (HEPG2TOX_HILL_SLOPE 3.21, HEPG2TOX_R_SQUARED 0.873, PBLUC_HILL_SLOPE 1.18, PBLUC_R_SQUARED 0.659, read-out: LUCIFERASE INFECTION ASSAY - IC50): 3.31 µM |
| O=C(Nc1cccc(F)c1)N1CCC2(CC1)OCc1cc(-c3ccco3)ccc1O2 | > 8.08 µM | > 8.08 µM | – |
| CC(C)c1ccc(S(=O)(=O)c2ccc(NNC(=O)c3ccccc3OCc3ccc(Cl)cc3)cc2)cc1 | – | > 10 µM | IC50 (FFLUC_HILL_SLOPE 4.22, FFLUC_R_SQUARED 0.402, PBLUC_HILL_SLOPE 10.9, PBLUC_R_SQUARED 0.175, read-out: LUCIFERASE INFECTION ASSAY - IC50): 8.49 µM |
| COc1ccc(CSc2nnc(CSc3cccs3)n2C)cc1 | > 9.08 µM | > 9.08 µM | – |
| c1ccc(OCc2nc3ccccc3n2-c2cc(-c3ccccc3)n[nH]2)cc1 | – | > 10 µM | IC50 (PBLUC_HILL_SLOPE 0.678, 16.2, PBLUC_R_SQUARED 0.350, 0.0461, read-out: LUCIFERASE INFECTION ASSAY - IC50): 9.43 µM |
| COC(=O)c1ccc(CNC(=O)NCCN2c3ccccc3CCC2C)cc1 (stereo not drawn) | – | 3.88 µM | IC50 (HEPG2TOX_HILL_SLOPE 2.63, HEPG2TOX_R_SQUARED 0.63, PBLUC_HILL_SLOPE 12, PBLUC_R_SQUARED 0.668, read-out: LUCIFERASE INFECTION ASSAY - IC50): 3.23 µM |
| Cc1ccc(-c2cnc(N)c(-c3ccc(C(=O)NCCN(C)C)cc3)c2)cc1 | > 8.81 µM | > 8.81 µM | – |
| O=C(NNC(=O)c1sccc1OCc1ncc(C(F)(F)F)cc1Cl)c1ccccc1 | – | > 7.24 µM | IC50 (PBLUC_HILL_SLOPE 1.3, PBLUC_R_SQUARED 0.614, read-out: LUCIFERASE INFECTION ASSAY - IC50): 4.13 µM |
| COc1ccc(-c2cc3ncc(-c4ccccc4)c(N)n3n2)cc1 | – | 4.1 µM | IC50 (PBLUC_HILL_SLOPE 17.3, PBLUC_R_SQUARED 0.589, read-out: LUCIFERASE INFECTION ASSAY - IC50): 3.61 µM |
| OC(CNC1CCCc2ccccc21)COC(c1ccc(F)cc1)c1ccc(F)cc1 (stereo not drawn) | > 10 µM | > 10 µM | – |
| CSc1sc(C(=O)N/N=C/c2ccc(Cl)cc2)cc1S(=O)(=O)C(C)C | – | 5.75 µM | IC50 (HEPG2TOX_HILL_SLOPE 1.17, HEPG2TOX_R_SQUARED 0.979, PBLUC_HILL_SLOPE 3, PBLUC_R_SQUARED 0.696, read-out: LUCIFERASE INFECTION ASSAY - IC50): 2.77 µM |
| COc1ccc(-c2cnc3cnc(-c4cccnc4)cn23)cc1 | – | 4.75 µM | IC50 (PBLUC_HILL_SLOPE 2.13, PBLUC_R_SQUARED 0.733, read-out: LUCIFERASE INFECTION ASSAY - IC50): 1.7 µM |
| Cc1nc(C(=O)NNC(=O)c2ccc(C(C)(C)C)cc2)cs1 | – | 6.76 µM | IC50 (HEPG2TOX_HILL_SLOPE 1.77, HEPG2TOX_R_SQUARED 0.966, PBLUC_HILL_SLOPE 4.32, PBLUC_R_SQUARED 0.361, read-out: LUCIFERASE INFECTION ASSAY - IC50): 4.06 µM |
| CCCCOc1ccc(Nc2nc(C(N)CCc3ccccc3)cs2)nn1 (stereo not drawn) | > 8.6 µM | > 8.6 µM | – |
| CCN(CC)CCn1c(NC(=O)c2cc3c(s2)CCCC3)nc2ccccc21 | – | > 10 µM | IC50 (PBLUC_HILL_SLOPE 4.87, PBLUC_R_SQUARED 0.309, read-out: LUCIFERASE INFECTION ASSAY - IC50): 6.91 µM |
| Cc1cc(N2CCN(CC(=O)N(C)C)CC2)nc2c(C(C)C)cccc12 | – | 6.13 µM | IC50 (PBLUC_HILL_SLOPE 64.7, PBLUC_R_SQUARED 0.2, read-out: LUCIFERASE INFECTION ASSAY - IC50): 5.93 µM |
| CCc1c(C)sc2nc(SCC(=O)Nc3cc(C)on3)n(-c3ccc(O)cc3C)c(=O)c12 | 3.89 µM | 8.83 µM | – |
| Cc1ccc(-n2c(C)cc(C(=O)CN(c3ccccc3)S(=O)(=O)c3ccc(F)cc3)c2C)cc1C | – | > 10 µM | IC50 (FFLUC_HILL_SLOPE 9.87, FFLUC_R_SQUARED 0.464, read-out: LUCIFERASE INFECTION ASSAY - IC50): > 10 µM |
| CCOc1ccc(Oc2ccc(Cl)cc2NCC(=O)N(C)CC(=O)NC(C)C)cc1 | > 10 µM | > 10 µM | – |

| Compound | IC50 [1] | IC90 | other results |
| --- | --- | --- | --- |
| CCN1C(=O)N(CCc2ccccc2)C2(CCN(Cc3cccc(OC)c3)CC2)C1=O | – | > 7.83 µM | IC50 (HEPG2TOX_HILL_SLOPE 18.8, HEPG2TOX_R_SQUARED 0.873, read-out: LUCIFERASE INFECTION ASSAY - IC50): > 7.83 µM |
| CC(C)c1cc(C(=O)OCCCn2c(=O)[nH]c3ccccc32)c2cnn(C(C)C)c2n1 | > 10 µM | > 10 µM | – |
| Cc1cc(/C=N/Nc2nncc3ccccc23)c(C)n1-c1ccc(I)cc1 | – | > 10 µM | IC50 (PBLUC_HILL_SLOPE 2.06, PBLUC_R_SQUARED 0.597, read-out: LUCIFERASE INFECTION ASSAY - IC50): 6.98 µM |
| COc1ccc(-c2cnc3ccc(NCC4CC4)nn23)cc1OC | – | 2.25 µM | IC50 (HEPG2TOX_HILL_SLOPE 1.71, HEPG2TOX_R_SQUARED 0.949, PBLUC_HILL_SLOPE 2.62, PBLUC_R_SQUARED 0.845, read-out: LUCIFERASE INFECTION ASSAY - IC50): 0.972 µM |
| Cc1nc(Sc2nnc3ccccn23)c2c3c(sc2n1)CCCC3 | 2.94 µM | 3.52 µM | – |
| O=C(Nc1ccc(-n2cnc3ccccc32)nc1)c1ccc(S(=O)(=O)C(F)F)cc1 | – | > 10 µM | IC50 (FFLUC_HILL_SLOPE 3, FFLUC_R_SQUARED 0.28, HEPG2TOX_HILL_SLOPE 9.7, HEPG2TOX_R_SQUARED 0.823, PBLUC_HILL_SLOPE 15.6, 20.0, PBLUC_R_SQUARED 0.113, 0.608, read-out: LUCIFERASE INFECTION ASSAY - IC50): 9.13 µM |
| COc1ccc(C2CC(=O)c3cnn(-c4nc(C)cc(C)n4)c3C2)cc1 (stereo not drawn) | – | 4.91 µM | IC50 (PBLUC_HILL_SLOPE 4.21, PBLUC_R_SQUARED 0.368, read-out: LUCIFERASE INFECTION ASSAY - IC50): 2.91 µM |
| CCOC(=O)C1=C(Cn2ccnc2)NC(=O)NC1CC (stereo not drawn) | > 10 µM | > 10 µM | – |
| CN(C)CCCNC(=O)c1ccc(-c2cn3c(-c4cccc(Cl)c4)cnc3cn2)cc1 | > 7.6 µM | > 7.6 µM | – |
| COc1cc(C)ccc1Oc1nc2cc(C)nn2c2ccccc12 | – | > 10 µM | IC50 (HEPG2TOX_HILL_SLOPE 1.87, HEPG2TOX_R_SQUARED 0.892, read-out: LUCIFERASE INFECTION ASSAY - IC50): > 10 µM |
| OCc1ccc(-c2cn3c(-c4ccc5c(c4)OCO5)cnc3cn2)cc1 | – | > 9.56 µM | IC50 (PBLUC_HILL_SLOPE 1.17, PBLUC_R_SQUARED 0.649, read-out: LUCIFERASE INFECTION ASSAY - IC50): 3.91 µM |
| NC(Cc1ccc(C(F)(F)F)cc1)c1csc(NC(=O)Nc2ccccc2Cc2ccccc2)n1 (stereo not drawn) | – | 6.33 µM | IC50 (PBLUC_HILL_SLOPE 25.9, PBLUC_R_SQUARED 0.261, read-out: LUCIFERASE INFECTION ASSAY - IC50): 5.82 µM |
| COc1cc(OC)c2[nH]c(C(=O)Nc3ccc(-n4cccn4)cc3)cc2c1 | – | > 10 µM | IC50 (PBLUC_HILL_SLOPE 2.78, PBLUC_R_SQUARED 0.238, read-out: LUCIFERASE INFECTION ASSAY - IC50): 6.45 µM |
| Nc1c(C(=O)c2ccc(Cl)cc2)sc(NCc2ccco2)c1C(=O)Nc1cc(Cl)ccc1Cl | – | 4.4 µM | IC50 (FFLUC_HILL_SLOPE 2.13, FFLUC_R_SQUARED 0.528, HEPG2TOX_HILL_SLOPE 16.1, HEPG2TOX_R_SQUARED 0.784, PBLUC_HILL_SLOPE 2.08, PBLUC_R_SQUARED 0.686, read-out: LUCIFERASE INFECTION ASSAY - IC50): 1.53 µM |
| N#Cc1ccc(Sc2c(Cl)cccc2Cl)c(NC(=O)c2cccc(Cl)c2)c1 | – | > 7.61 µM | IC50 (PBLUC_HILL_SLOPE 1.82, PBLUC_R_SQUARED 0.326, read-out: LUCIFERASE INFECTION ASSAY - IC50): 6.05 µM |
| O=S(=O)(/N=C(\N/N=C/c1ccc(Cl)cc1)N1CCCC1)c1ccc(-n2nc(C(F)(F)F)cc2-c2cccs2)cc1 | – | > 5.44 µM | IC50 (FFLUC_HILL_SLOPE 13, FFLUC_R_SQUARED 0.6, read-out: LUCIFERASE INFECTION ASSAY - IC50): > 5.44 µM |
| CN1CCN(c2ccc(NC(=O)c3cc4c(s3)-c3ccccc3CC4)cn2)CC1 | – | 7.61 µM | IC50 (HEPG2TOX_HILL_SLOPE 13, HEPG2TOX_R_SQUARED 0.777, PBLUC_HILL_SLOPE 77.5, 23.4, PBLUC_R_SQUARED 0.0252, 0.733, read-out: LUCIFERASE INFECTION ASSAY - IC50): 7.13 µM |
| c1ccn2c(Sc3ncnc4sc5c(c34)CCC5)nnc2c1 | – | > 10 µM | IC50 (PBLUC_HILL_SLOPE 2.99, PBLUC_R_SQUARED 0.206, read-out: LUCIFERASE INFECTION ASSAY - IC50): 4.93 µM |
| Cc1nc(N2CCC(C)CC2)nc2c1C(=O)CC(/C=C/c1ccccc1)C2 (stereo not drawn) | > 9.13 µM | > 9.13 µM | – |
| COc1ccc(N2CCN(c3nccnc3-c3ccccc3)CC2)cc1OC | 0.382 µM | 0.978 µM | – |
| CCC(C)(C)c1ccc(Oc2ccc(NC(=O)CSc3nnc(-c4ccccc4)[nH]3)cc2)cc1 | – | 7.78 µM | IC50 (HEPG2TOX_HILL_SLOPE 9.08, HEPG2TOX_R_SQUARED 0.57, PBLUC_HILL_SLOPE 3.67, PBLUC_R_SQUARED 0.581, read-out: LUCIFERASE INFECTION ASSAY - IC50): 4.28 µM |
| CCOC(=O)C1=C(CN(C)C2CCCCC2)NC(=O)NC1 | > 10 µM | > 10 µM | – |
